{"source": "ChEMBL document CHEMBL5356934", "about": "“Antibacterial activities of anthraquinones: structure-activity relationships and action mechanisms” (RSC Med Chem, 2023)", "system": "Mycobacterium tuberculosis variant bovis", "assay": "Antimycobacterial activity against Mycobacterium bovis assessed as reduction in bacterial growth", "type": "functional"}
{"smiles": "Cc1cc(O)c2c(c1)C(=O)c1cccc(O)c1C2=O", "note": "[CHRYSOPHANOL]", "values": [{"measurement": "MIC", "result": 64, "unit": "µg/mL"}]}
